Test results reported in US20260234140A1, “PYRIDOPYRIMIDINE DERIVATIVE AND USE THEREOF” (SUNSHINE LAKE PHARMA CO., LTD., priority 2023, published 2026).

System: PD1/PD-L1 pathway
Experiment: PD1/PD-L1 Blockade Bioassay, inhibition of the PD1/PD-L1 pathway at the cellular level (luciferase reporter, PD-1 Jukat T cells co-cultured with PD-L1 aAPC/CHO-K1 cells)
Type: cell-based
Settings: T-cell; for EC50: PD-1 Jukat T cells + PD-L1 aAPC/CHO-K1 cells, 6 h co-culture, ONE-Glo luciferase readout; for Emax: maximum % Activity relative to atezolizumab (set to 100%)
Experimental: Experiment 1: Detecting the Inhibitory Activity of Compounds on the PD1/PD-L1 Pathway at the Cellular Level Using the PD1/PD-L1 Blockade Bioassay Method
PD-1 Jukat T cells were revived and cultured with 1640 medium containing 100 μg/mL Hygromycin B, […] Puromycin, 10% FBS and 1% dual antibody; PD-L1 aAPC/CHO-K1 cells were revived and cultured with F12K medium containing 100 μg/mL Hygromycin B, 200 μg/mL G418, 10% FBS and 1% dual antibody.
The revived cells need to be passaged 2-3 times. When the cells enter the exponential growth phase with good growth status, the PD-L1 aAPC/CHO-K1 was digested with trypsin, and the cells were resuspended in F12K containing 5% FBS and adjusted to a density of 5×10^5 cells/mL. 20 μl/well were plated in a 384-well plate (10,000 cells/well) and incubated in an incubator overnight for 16-20 h.
a Preparation of compound stock solution: Dissolve the compound to be tested in DMSO to prepare a 20 mM stock solution.
b Compound gradient dilution: dilute the compound in 1640 medium containing 5% FBS without antibiotics or phenol red, and make 3-fold gradient dilutions to prepare 10 concentration gradients (2×).
c Adding drugs: Take out the cell culture plate, discard the supernatant, add 20 μl/well of the prepared compound, and incubate in the incubator for 1.5 h.
PD-1 Jukat T cells were collected, washed once with PBS, and resuspended in 1640 medium containing 5% FBS without antibiotics or phenol red. The density was adjusted to 1×10^6 cells/mL. 20 μl PD-1 Jukat T cells (20,000 cells/well) were added to each well and incubated in the incubator for 6 h.
ONE-Glo™ Luciferase Assay reagent was thawed to room temperature in advance and then added to a 384-well plate at 40 µl/well. Incubate in the dark for 15 minutes and read the […] signal on a plate reader.
[formula] • Among them, % Activity: % Activity • RLU: Resulting Luminescence unit • RLUvehicle: Average RLU value of negative control wells on each plate • RLUpositive: Average RLU value of positive control wells on each plate • Vehicle control: DMSO (0.1%) corresponding to the test value was used as negative control (its % Activity was 0%); • Positive control: The highest detection value at the atezolizumab administration concentration was used as the positive control (its % Activity was 100%). • (2) EC50 value calculation method: The EC50 value was obtained by the nonlinear fitting formula of Graph Pad Prism 8.0 software. The calculation formula is as follows:
Y=Bottom+(Top−Bottom)/(1+10^((Log EC50−X)×HillSlope)) • X: log of activator concentration (logarithm of compound concentration); Y: % Activity • (3) Emax definition: The maximum % Activity value corresponding to the maximum activation value of the compound relative to atezolizumab (the activation value is set to 100%).

COc1nc(-c2cccc(-c3cccc(Nc4nc(C(F)F)nc5cc(CN6CCC[C@H]6C)cnc45)c3C)c2Cl)cnc1CN(C)[C@H]1CC[C@H](C(=O)O)CC1 [Example 41]
EC50: 90.6 nM
Emax: 79%

COc1nc(-c2cccc(-c3cccc(Nc4nc(C(F)F)nc5cc(CN6CC[C@H](O)C6)cnc45)c3C)c2Cl)cnc1CN[C@@H]1CCOC[C@@H]1O [Example 51, (S)-1-((4-((2′-chloro-3′-(5-((((3R,4R)-3-hydroxytetrahydro-2H-pyran-4-yl)amino)methyl)-6-methoxypyrazin-2-yl)-2-methyl-[1,1′-biphenyl]-3-yl)amino)-2-(difluoromethyl)pyrido[3,2-d]pyrimidin-7-yl)methyl)pyrrolidin-3-ol]
EC50: 99.1 nM
Emax: 96%

COc1nc(-c2cccc(-c3cccc(Nc4nc(C(F)F)nc5cc(CN6CC[C@@H](O)C6)cnc45)c3C)c2C)cnc1CN(C)[C@H]1CC[C@H](C(=O)O)CC1 [Example 27, (1r,4r)-4-(((5-(3′-((2-(difluoromethyl)-7-(((R)-3-hydroxypyrrolidin-1-yl)methyl)pyrido[3,2-d]pyrimidin-4-yl)amino)-2,2′-dimethyl-[1,1′-biphenyl]-3-yl)-3-methoxypyrazin-2-yl)methyl)(methyl)amino)cyclohexane-1-carboxylic acid]
EC50: 112 nM
Emax: 63%

COc1nc(-c2cccc(-c3cccc(Nc4nc(C(F)F)nc5cc(CN6CC[C@@H](CO)C6)cnc45)c3C)c2Cl)cnc1CN(C)[C@H]1CC[C@H](C(=O)O)CC1 [Example 23, (1r,4r)-4-(((5-(2-chloro-3′-((2-(difluoromethyl)-7-(((R)-3-(hydroxymethyl)pyrrolidin-1-yl)methyl)pyrido[3,2-d]pyrimidin-4-yl)amino)-2′-methyl-[1,1′-biphenyl]-3-yl)-3-methoxypyrazin-2-yl)methyl)(methyl)amino)cyclohexane-1-carboxylic acid]
EC50: 44.4 nM
Emax: 74%

COc1nc(-c2cccc(-c3cccc(Nc4nc(C(F)F)nc5cc(CN6CC(OC)C6)cnc45)c3C)c2Cl)cnc1CN(C)[C@H]1CC[C@H](C(=O)O)CC1 [Example 18, (1r,4r)-4-(((5-(2-chloro-3′-((2-(difluoromethyl)-7-((3-methoxyazetidin-1-yl)methyl)pyrido[3,2-d]pyrimidin-4-yl)amino)-2′-methyl-[1,1′-biphenyl]-3-yl)-3-methoxypyrazin-2-yl)methyl)(methyl)amino)cyclohexane-1-carboxylic acid]
EC50: 71.1 nM
Emax: 68%

COc1nc(-c2cccc(-c3cccc(Nc4nc(C(F)F)nc5cc(CN6CC[C@H]([C@H](C)O)C6)cnc45)c3C)c2Cl)cnc1CN(C)[C@H]1CC[C@H](C(=O)O)CC1 [Example 45, (1r,4r)-4-(((5-(2-chloro-3′-((2-(difluoromethyl)-7-(((S)-3-((S)-1-hydroxyethyl)pyrrolidin-1-yl)methyl)pyrido[3,2-d]pyrimidin-4-yl)amino)-2′-methyl-[1,1′-biphenyl]-3-yl)-3-methoxypyrazin-2-yl)methyl)(methyl)amino)cyclohexane-1-carboxylic acid]
EC50: 94.7 nM
Emax: 87.3%

COc1nc(-c2cccc(-c3cccc(Nc4nc(C(F)F)nc5cc(CN6CC[C@@H](O)C6)cnc45)c3Cl)c2Cl)cnc1CN(C)[C@H]1CC[C@H](C(=O)O)CC1 [Example 35, (1r,4r)-4-(((5-(2,2′-dichloro-3′-((2-(difluoromethyl)-7-(((R)-3-hydroxypyrrolidin-1-yl)methyl)pyrido[3,2-d]pyrimidin-4-yl)amino)-[1,1′-biphenyl]-3-yl)-3-methoxypyrazin-2-yl)methyl)(methyl)amino)cyclohexane-1-carboxylic acid]
EC50: 46.1 nM
Emax: 102%

COc1nc(-c2cccc(-c3cccc(Nc4nc(C(F)F)nc5cc(CN6CC[C@@H](O)C6)cnc45)c3C)c2Cl)cnc1CN(C)[C@H]1CC[C@H](C(=O)O)C1 [Example 52, (1S,3S)-3-(((5-(2-chloro-3′-((2-(difluoromethyl)-7-(((R)-3-hydroxypyrrolidin-1-yl)methyl)pyrido[3,2-d]pyrimidin-4-yl)amino)-2′-methyl-[1,1′-biphenyl]-3-yl)-3-methoxypyrazin-2-yl)methyl)(methyl)amino)cyclopentane-1-carboxylic acid]
EC50: 75.8 nM
Emax: 74.3%

COc1nc(-c2cccc(-c3cccc(Nc4nc(C(F)F)nc5cc(CN6CCCC6)cnc45)c3C)c2Cl)cnc1CN(C)[C@H]1CC[C@H](C(=O)O)CC1 [Example 20, (1r,4r)-4-(((5-(2-chloro-3′-((2-(difluoromethyl)-7-(pyrrolidin-1-ylmethyl)pyrido[3,2-d]pyrimidin-4-yl)amino)-2′-methyl-[1,1′-biphenyl]-3-yl)-3-methoxypyrazin-2-yl)methyl)(methyl)amino)cyclohexane-1-carboxylic acid]
EC50: 63.5 nM
Emax: 108%

COc1nc(-c2cccc(-c3cccc(Nc4nc(C(F)F)nc5cc(CN6CC[C@@H](O)C6)cnc45)c3Cl)c2Cl)ccc1CN(C)[C@H]1CC[C@H](C(=O)O)CC1 [Example 16, (1r,4r)-4-(((6-(2,2′-dichloro-3′-((2-(difluoromethyl)-7-(((R)-3-hydroxypyrrolidin-1-yl)methyl)pyrido[3,2-d]pyrimidin-4-yl)amino)-[1,1′-biphenyl]-3-yl)-2-methoxypyridin-3-yl)methyl)(methyl)amino)cyclohexane-1-carboxylic acid]
EC50: 28.1 nM
Emax: 107%

COc1nc(-c2cccc(-c3cccc(Nc4nc(C(F)F)nc5cc(CN6CC[C@@H](O)C6)cnc45)c3C)c2Cl)ccc1CNC12CCC(C(=O)O)(CC1)C2 [Example 9, (R)-4-(((6-(2-chloro-3′-((2-(difluoromethyl)-7-((3-hydroxypyrrolidin-1-yl)methyl)pyrido[3,2-d]pyrimidin-4-yl)amino)-2′-methyl-[1,1′-biphenyl]-3-yl)-2-methoxypyridin-3-yl)methyl)amino)bicyclo[2.2.1]heptane-1-carboxylic acid]
EC50: 90.7 nM
Emax: 117%

COc1nc(-c2cccc(-c3cccc(Nc4nc(C(F)F)nc5cc(CN6CC[C@@H](O)C6)cnc45)c3C)c2Cl)cnc1CN[C@H]1CC[C@H](C(=O)O)CC1 [Example 33, (1r,4r)-4-(((5-(2-chloro-3′-((2-(difluoromethyl)-7-(((R)-3-hydroxypyrrolidin-1-yl)methyl)pyrido[3,2-d]pyrimidin-4-yl)amino)-2′-methyl-[1,1′-biphenyl]-3-yl)-3-methoxypyrazin-2-yl)methyl)amino)cyclohexane-1-carboxylic acid]
EC50: 58.6 nM
Emax: 95.3%

COc1nc(-c2cccc(-c3cccc(Nc4nc(C(F)F)nc5cc(CN6CC(C)(O)C6)cnc45)c3C)c2Cl)cnc1CN(C)[C@H]1CC[C@H](C(=O)O)CC1 [Example 19, (1r,4r)-4-(((5-(2-chloro-3′-((2-(difluoromethyl)-7-((3-hydroxy-3-methylazetidin-1-yl)methyl)pyrido[3,2-d]pyrimidin-4-yl)amino)-2′-methyl-[1,1′-biphenyl]-3-yl)-3-methoxypyrazin-2-yl)methyl)(methyl)amino)cyclohexane-1-carboxylic acid]
EC50: 43.2 nM
Emax: 80%
